Values of other authors, collected in patent US10752566B2, “Solvent compositions for use as replacements for slow evaporating solvents” (TBF ENVIRONMENTAL TECHNOLOGY INC., priority 2015, dated 2020).

Details: PCBTF

SMILES: FC(F)(F)c1ccc(Cl)cc1 [PCBTF, para-Chlorobenzotrifluoride]
- specific gravity: 1.34
